#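 96-well plates; 48 h exposure; 5 concentrations. Endpoints by linear interpolation between flanking doses. Not reached: highest tested concentration assigned. Here, GI50 denotes the concentration required for 50% inhibition of growth. TGI is the concentration that stops growth completely.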
# Tests used:
# Assay in all cases: NCI anticancer screen, dose series, 48 h
# A549 NSCLC = test system: A549 NSCLC
# PC-3 prostate = test system: PC-3 prostate
# OVCAR-3 ovarian = test system: OVCAR-3 ovarian
# 786-0 renal = test system: 786-0 renal
# TK-10 renal = test system: TK-10 renal
# OVCAR-4 ovarian = test system: OVCAR-4 ovarian
# HT29 colon = test system: HT29 colon
# MALME-3M melanoma = test system: MALME-3M melanoma
# MDA-MB-435 = test system: MDA-MB-435
# SNB-75 CNS = test system: SNB-75 CNS
# UO-31 renal = test system: UO-31 renal
# HS 578T breast = test system: HS 578T breast
# NCI/ADR-RES ovarian = test system: NCI/ADR-RES ovarian
# SW-620 colon = test system: SW-620 colon
SMILES,TGI (A549 NSCLC),TGI (PC-3 prostate),TGI (OVCAR-3 ovarian),TGI (786-0 renal),TGI (TK-10 renal),TGI (OVCAR-4 ovarian),TGI (HT29 colon),TGI (MALME-3M melanoma),TGI (MDA-MB-435),TGI (SNB-75 CNS),TGI (UO-31 renal),TGI (HS 578T breast),TGI (NCI/ADR-RES ovarian),TGI (SW-620 colon),GI50 (TK-10 renal),GI50 (UO-31 renal)
Cc1c(-c2ccccc2)[nH]c2ccc(Cl)cc2c1=O,0.205 µM,> 100 µM,72 µM,> 100 µM,> 100 µM,59.7 µM,> 100 µM,48.7 µM,57.3 µM,95.2 µM,0.507 µM,> 100 µM,> 100 µM,> 100 µM,–,–
O=C1OC2C(O)COC2(O)C1(O)C(C[N+](=O)[O-])c1ccc(Cl)cc1 (stereo not drawn),37.1 µM,34.3 µM,21.5 µM,3.45 µM,25.9 µM,19.4 µM,6.11 µM,30.3 µM,4.59 µM,20.1 µM,22.7 µM,> 52.9 µM,72 µM,14.1 µM,–,–
COC(=O)C(Cc1ccccc1)NC(=O)C(CCC(=O)OCc1ccccc1)NC(=O)OC(C)(C)C (stereo not drawn),> 100 µM,> 100 µM,> 100 µM,> 100 µM,> 100 µM,> 100 µM,> 100 µM,> 100 µM,> 100 µM,> 100 µM,> 100 µM,> 100 µM,> 100 µM,> 100 µM,–,–
CC1(C)C(C#N)=[N+]([O-])C(C)(C)N1O,> 100 µM,> 100 µM,> 100 µM,> 100 µM,> 100 µM,> 100 µM,> 100 µM,> 100 µM,> 100 µM,> 100 µM,> 100 µM,> 100 µM,> 100 µM,> 100 µM,–,–
O=C1Oc2ccccc2C(=O)/C1=C/N1C(=O)/C(=C/c2ccc3c(c2)OCO3)SC1=S,35.4 µM,30.6 µM,10.9 µM,> 54.8 µM,22.7 µM,47.9 µM,35.9 µM,44.8 µM,39.7 µM,19.2 µM,22.9 µM,14.9 µM,48.4 µM,43.5 µM,10.1 µM,7.14 µM
CCOC(=O)[C@@H]1OC(c2ccccc2)O[C@H]1C(=O)OCC,> 100 µM,> 100 µM,> 100 µM,> 100 µM,> 100 µM,> 100 µM,> 100 µM,> 100 µM,> 100 µM,> 100 µM,> 100 µM,> 100 µM,> 100 µM,> 100 µM,–,–
COc1cccc(C(=O)Nc2c3ccccc3nc3ccccc23)c1OC,> 100 µM,> 100 µM,> 100 µM,> 100 µM,> 100 µM,> 100 µM,> 100 µM,> 100 µM,> 100 µM,71 µM,14.7 µM,> 100 µM,> 100 µM,> 100 µM,–,–
C=CC(CBr)CCC(Br)C(C)(C)Br (stereo not drawn),> 10 µM,> 10 µM,> 10 µM,> 10 µM,> 10 µM,> 10 µM,> 10 µM,> 10 µM,> 10 µM,> 10 µM,> 10 µM,> 10 µM,> 10 µM,> 10 µM,–,–
CC1=CC=C2c3ccccc3C=CN2C(=O)C1,> 100 µM,> 100 µM,> 100 µM,> 100 µM,84.9 µM,> 100 µM,> 100 µM,> 100 µM,> 100 µM,> 100 µM,> 100 µM,> 100 µM,> 100 µM,> 100 µM,–,–
O=C1c2sc(-c3ccc(F)cc3)cc2-n2cccc21,> 100 µM,> 100 µM,> 100 µM,32.2 µM,50.7 µM,> 100 µM,> 100 µM,> 100 µM,> 100 µM,43.7 µM,> 100 µM,62.7 µM,> 100 µM,> 100 µM,–,–
C/C(=C/c1ccccc1)CN(C(=O)/C=C\Sc1ccccc1)C(C)(C)C,> 100 µM,> 100 µM,> 100 µM,> 100 µM,> 100 µM,> 100 µM,> 100 µM,> 100 µM,> 100 µM,> 100 µM,> 100 µM,> 47.8 µM,> 100 µM,> 100 µM,–,–
CC(=O)OCC1OC(n2c(C#N)cc(=O)[nH]c2=O)CC1OC(C)=O (stereo not drawn),> 100 µM,> 100 µM,> 100 µM,> 100 µM,> 100 µM,> 100 µM,> 100 µM,> 100 µM,> 100 µM,> 100 µM,> 100 µM,> 100 µM,> 100 µM,> 100 µM,–,–
CC(C)(C)N1C(=O)c2ccccc2C1(O)C(F)(F)F (stereo not drawn),> 100 µM,> 100 µM,> 100 µM,> 100 µM,> 100 µM,> 100 µM,> 100 µM,> 100 µM,> 100 µM,> 100 µM,> 100 µM,97.8 µM,> 100 µM,> 100 µM,–,–
CC(C)/C(Cl)=N/OC(=O)Nc1cccc(C(F)(F)F)c1,39.1 µM,29.8 µM,8.12 µM,7.52 µM,12.7 µM,16.6 µM,10.6 µM,3.66 µM,26.9 µM,21.2 µM,22.9 µM,> 69.4 µM,16.7 µM,1.8 µM,–,–
CC1C(=NO)C(C)C(c2ccccc2)N(N=O)C1c1ccccc1 (stereo not drawn),40.7 µM,> 100 µM,65.7 µM,42.7 µM,55.7 µM,54.4 µM,33.8 µM,34.6 µM,44.8 µM,82 µM,39.1 µM,36.7 µM,37 µM,42 µM,–,–
CCc1n[nH]c(=O)n1N1C(=O)CCC1=O,> 100 µM,> 100 µM,> 100 µM,> 100 µM,> 100 µM,> 100 µM,> 100 µM,> 100 µM,> 100 µM,> 100 µM,> 100 µM,> 100 µM,> 100 µM,> 100 µM,–,–
COc1ccc(C2=Nn3c(nc4sc(C)c(C)c4c3=O)SC2)cc1,> 100 µM,> 100 µM,> 100 µM,> 100 µM,> 100 µM,> 100 µM,> 100 µM,> 100 µM,> 100 µM,> 100 µM,> 100 µM,> 100 µM,> 100 µM,> 100 µM,–,–
NC(=O)NC(=O)CCC(NS(=O)(=O)c1ccccc1)C(=O)NC(N)=O (stereo not drawn),> 100 µM,> 100 µM,> 100 µM,> 100 µM,> 100 µM,> 100 µM,> 100 µM,> 100 µM,> 100 µM,> 100 µM,> 100 µM,> 100 µM,> 100 µM,> 100 µM,–,–
COc1ccc2oc(=Nc3ccccc3)c(C(N)=O)cc2c1,> 100 µM,> 100 µM,> 100 µM,> 100 µM,> 87.6 µM,> 100 µM,> 100 µM,> 100 µM,> 24.4 µM,> 100 µM,> 55.6 µM,> 70.1 µM,> 100 µM,> 100 µM,–,–
C=CCOc1ccc(/C(N=Nc2ccc(C)cc2)=N/NC(=O)c2ccccc2)cc1OC,64.9 µM,> 100 µM,> 100 µM,> 100 µM,> 100 µM,> 100 µM,> 100 µM,76.9 µM,47.3 µM,65.6 µM,73.4 µM,87.6 µM,> 100 µM,> 100 µM,–,–
Cc1nn2c(=O)c([N+](=O)[O-])c(/C=C/c3ccco3)nc2s1,> 100 µM,> 100 µM,> 100 µM,> 100 µM,> 100 µM,> 100 µM,> 100 µM,> 100 µM,44.7 µM,> 100 µM,> 100 µM,89.1 µM,> 100 µM,> 100 µM,–,–
Cc1[nH]n(C2=NCCN2)c(=O)c1C,> 100 µM,> 100 µM,> 100 µM,> 100 µM,> 100 µM,> 100 µM,> 100 µM,> 100 µM,> 100 µM,> 100 µM,> 100 µM,> 100 µM,> 100 µM,> 100 µM,–,–
CCCc1cc(=O)oc2c(C=O)c(O)cc(O)c12,> 100 µM,59.3 µM,44.3 µM,> 100 µM,> 100 µM,73.5 µM,64.5 µM,42.1 µM,55.3 µM,47.4 µM,60.2 µM,61.2 µM,73 µM,56.4 µM,–,–
Cc1nnc2sc(Cl)nn12,72.8 µM,47.2 µM,33.6 µM,86.8 µM,68.5 µM,34.3 µM,32.9 µM,85.6 µM,20.2 µM,> 100 µM,74 µM,> 100 µM,> 100 µM,16.6 µM,–,–
